# Measurements taken from patent US4686220A, “Substituted 2-[b-substituted-amino)-ethylamino]-1,4-naphthalenediones for treating asthma, allergic diseases and inflammation in warm-blooded animals” (American Cyanamid Company, priority 1985, dated 1987).
# Where a name gives a salt, the structure may show the parent alone. Read-outs that look alike come from different tables or passages of the source.
# Target: T1, Neutrophil Lipoxygenase (Cavia porcellus, UniProt A0A286X958)
# T1 construct: endogenous in cells; host or cells: guinea pig peritoneal neutrophils
# T1 sequence (A0A286X958 1-674): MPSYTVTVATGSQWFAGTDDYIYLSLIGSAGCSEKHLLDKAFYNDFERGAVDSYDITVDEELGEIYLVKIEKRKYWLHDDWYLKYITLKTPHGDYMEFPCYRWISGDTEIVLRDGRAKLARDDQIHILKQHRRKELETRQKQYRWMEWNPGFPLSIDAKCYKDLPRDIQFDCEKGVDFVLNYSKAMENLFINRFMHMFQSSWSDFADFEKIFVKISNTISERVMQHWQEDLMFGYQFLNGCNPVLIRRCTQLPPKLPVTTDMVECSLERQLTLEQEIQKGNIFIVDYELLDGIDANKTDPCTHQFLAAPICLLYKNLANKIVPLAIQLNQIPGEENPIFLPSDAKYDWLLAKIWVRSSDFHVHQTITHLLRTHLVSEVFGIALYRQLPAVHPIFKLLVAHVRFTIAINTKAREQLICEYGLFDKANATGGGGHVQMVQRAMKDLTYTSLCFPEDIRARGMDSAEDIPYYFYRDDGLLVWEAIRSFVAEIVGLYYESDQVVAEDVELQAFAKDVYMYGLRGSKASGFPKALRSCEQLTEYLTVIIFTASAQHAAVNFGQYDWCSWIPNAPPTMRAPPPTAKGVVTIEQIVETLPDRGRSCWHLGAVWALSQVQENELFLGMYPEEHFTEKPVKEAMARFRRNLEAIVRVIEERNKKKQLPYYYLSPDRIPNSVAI
# Assay: Inhibition of Neutrophil Lipoxygenase from Immunologically Stimulated Guinea Pig Neutrophiles (LTB4 and 5-HETE)
# Type: cell-based
# Details: 10 μg/ml, 100 μM arachidonic acid and 20 μM A23187, the lower the percentage, the more active
# Description: In this assay 3×10^7 peritoneal neutrophils derived from guinea pigs were incubated at 37° C. in Dulbeccos buffer containing 50 mM tris buffer (pH 7.4). Five minutes before the addition of 100 μM arachidonic acid and 20 μM calcium ionophore (A23187), control vehicle or the test compounds were added to the neutrophils at a concentration of 10 μg/ml. Three minutes after the addition of arachidonic acid and calcium ionophore the total lipid was partitioned into chloroform after adjusting the pH to 3 with citric acid and the addition of equal parts of methanol and chloroform. The 5-HETE and LTB4 were resolved by HPLC using a 5 μM, 4×25 cm octadecyl silica column (IBM Instruments) with 70-80% methanol in water adjusted to pH 3.0 with acetic acid. As the mobile phase was pumped at 1.0 ml/minute, LTB4 and 5-HETE were detected by absorbance at 270 and 236 nm, respectively. LTB4 and 5-HETE were quantitated by comparison with the control and the results were expressed as a percent of control.
SMILES,"remaining activity at 10 µg/mL (read-out: 5-HETE, % of Control)","remaining activity at 10 µg/mL (read-out: LTB4, % of Control)"
"O=C1C(Cl)=C(N2CCN(Cc3ccc4c(c3)OCO4)CC2)C(=O)c2ccccc21 [Example 11, 2-[4-(1,3-benzodioxol-5-ylmethyl)-1-piperazinyl]-3-chloro-1,4-naphthalenedione, hydrochloride]",0%,0%
"CC(=O)NC1=C(N2CCN(c3cccc(C(F)(F)F)c3)CC2)C(=O)c2ccccc2C1=O [Example 28, N-[1,4-dihydro-1,4-dioxo-3-[4-[3-(trifluoromethyl)phenyl]-1-piperazinyl]-2-naphthalenyl]acetamide]",0.3%,–
"O=C1C(Cl)=C(N2CCN(C(=O)Nc3ccccc3Cl)CC2)C(=O)c2ccccc21 [Example 29, 4-(3-Chloro-1,4-dihydro-1,4-dioxo-2-naphthalenyl)-N-(2-chlorophenyl)-1-piperazinecarboxamide]",19.9%,22.2%
"O=C1C(Cl)=C(N2CCN(C(=O)Nc3ccccc3F)CC2)C(=O)c2ccccc21 [Example 30, 4-(3-chloro-1,4-dihydro-1,4-dioxo-2-naphthalenyl)-N-(2-fluorophenyl)-1-piperazinecarboxamide]",2%,0%
"O=C1C(Cl)=C(N2CCN(C(=O)Nc3cccc(C(F)(F)F)c3)CC2)C(=O)c2ccccc21 [Example 31, 4-(3-chloro-1,4-dihydro-1,4-dioxo-2-naphthalenyl)-N-[3-(trifluoromethyl)phenyl]-1-piperazinecarboxamide]",0%,–
"O=C1C(Cl)=C(N2CCN(C(=O)Nc3ccc(Cl)cc3)CC2)C(=O)c2ccccc21 [Example 32, 4-(3-chloro-1,4-dihydro-1,4-dioxo-2-naphthalenyl)-N-(4-chlorophenyl)-1-piperazinecarboxamide]",1.4%,–
"CCCCc1ccc(C(=O)N2CCN(C3=C(Cl)C(=O)c4ccccc4C3=O)CC2)cc1 [Example 35, 1-(4-butylbenzoyl)-4-(3-chloro-1,4-dihydro-1,4-dioxo-2-naphthalenyl)piperazine]",13.7%,23.2%
"CC1CN(C2=C(Cl)C(=O)c3ccccc3C2=O)CCN1C(=O)Nc1cccc(Cl)c1 (stereo not drawn) [Example 58, 4-(3-Chloro-1,4-dihydro-1,4-dioxo-2-naphthalenyl)-N-(3-chlorophenyl)-2-methyl-1-piperazinecarboxamide]",25.7%,15.2%

# More lines, now with the values ahead:
"remaining activity at 10 µg/mL (read-out: 5-HETE, % of Control)","remaining activity at 10 µg/mL (read-out: LTB4, % of Control)",SMILES
0%,0%,"O=C1C(Cl)=C(N2CCN(c3ccc4ccccc4n3)CC2)C(=O)c2ccccc21 [Example 10, 2-chloro-3-[4-(2-quinolinyl)-1-piperazinyl]-1,4-naphthalenedione, hydrochloride]"
34.3%,–,"O=C1C(Cl)=C(N2CCN(c3ncccn3)CC2)C(=O)c2ccccc21 [Example 12, 2-chloro-3-[4-(2-pyrimidinyl)-1-piperazinyl]-1,4-naphthalenedione]"
0%,0%,"CC(=O)NC1=C(N2CCN(c3nc4ccccc4s3)CC2)C(=O)c2ccccc2C1=O [Example 23, N-[3-[4-(2-benzothiazolyl)-1-piperazinyl]-1,4-dihydro-1,4-dioxo-2-naphthalenyl]acetamide]"
2.2%,–,"CCOC(=O)N1CCN(C2=C(C)C(=O)c3ccccc3C2=O)CC1 [Example 41, 4-(1,4-Dihydro-3-methyl-1,4-dioxo-2-naphthalenyl)-1-piperazinecarboxylic acid, ethyl ester]"
0.8%,20.8%,"CC1=C(N2CCN(c3nc4ccccc4s3)CC2)C(=O)c2ccccc2C1=O [Example 42, 2-[4-(2-benzothiazolyl)-1-piperazinyl]-3-methyl-1,4-naphthalenedione]"
0.7%,4.8%,"CC1=C(N2CCN(Cc3ccccc3)CC2)C(=O)c2ccccc2C1=O [Example 43, 2-methyl-3-[4-(phenylmethyl)-1-piperazinyl]-1,4-naphthalenedione]"
0%,0%,"CC1=C(N2CCN(c3ccccn3)CC2)C(=O)c2ccccc2C1=O [Example 44, 2-methyl-3-[4-(2-pyridinyl)-1-piperazinyl]-1,4-naphthalenedione]"
0%,–,"CC1=C(N2CCN(c3cccc(C(F)(F)F)c3)CC2)C(=O)c2ccccc2C1=O [Example 45, 2-methyl-3-[4-[3-(trifluoromethyl)phenyl]-1-piperazinyl]-1,4-naphthalenedione]"
1.1%,–,"O=C1C(Cl)=C(N2CCCN(c3nc4ccccc4s3)CC2)C(=O)c2ccccc21 [Example 52, 2-[4-(2-Benzothiazolyl)hexahydro-1H-diazepin-1-yl]-3-chloro-1,4-naphthalenedione]"
8.8%,–,"CC1=C(N2CCN(C(=O)Nc3ccc(Cl)cc3)CC2)C(=O)c2ccccc2C1=O [Example 54, N-(4-Chlorophenyl)-4-(1,4-dihydro-3-methyl-1,4-dioxo-2-naphthalenyl)-1-piperazinecarboxamide]"
19.6%,13.5%,"O=C1C(Cl)=C(N2CCN(c3nc4ccccc4o3)CC2)C(=O)c2ccccc21 [Example 55, 2-[4-(2-Benzoxazolyl)-1-piperazinyl]-3-chloro-1,4-naphthalenedione]"
